Where “and” joins values, the source holds several entries; their conditions need not be identical. Equal values may be shown once.
These molecules were tested on THP-1 viability, CellTiter-Glo luminescence, 72 h (assay: human monocytic cell viability reduction – S. typhimurium screen hits, cytotoxicity control for Salmonella PhoP regulon inhibitors, dose response (AID 2253)).
With `O=C1c2ccccc2C(=O)c2[nH]c(=O)[nH]c21` the EC50 was 4.83 µM.
`CCCCCCCCCCOC(=O)Cn1c(COc2ccc(Cl)cc2)[n+](C)c2ccccc21` was tested, and the EC50 was 2.05 µM.
`CCC(C)(C)c1ccc(OCCCC[n+]2ccc(C)cc2)c(C(C)(C)CC)c1` was tested, and the EC50 was 1.48 µM.
For `C#CCOCCOCCOCCNc1nc(N2CCN(C(=O)CCCCCCCCCCNC(=O)[C@H]([C@@H](C)CC)n3cc(CCCCN=C(N)N)nn3)CC2)nc(N2CCN(C(=O)CCCCCCCCCCNC(=O)[C@H]([C@@H](C)CC)n3cc(CCCCN=C(N)N)nn3)CC2)n1`, the EC50 was 4.39 µM.
Molecule `CC(=O)Nc1cc(N=Cc2ccc(O)cc2O)c(Cl)cc1Cl` has an EC50 of 45.3 µM.
`Nc1ccc(N(c2ccccc2)c2ccc(N)cc2)cc1` gave an EC50 of 4.85 µM.
`CC[n+]1c(/C=C/c2ccc(N(C)C)cc2)ccc2ccccc21` was tested, and the EC50 was 0.64 µM.
`O=Nc1ccc(O)c2ncccc12` gave an EC50 of 1.77 µM.
With `CCCCCCCCCCCCCCCC[N+](C)(C)CCN(Cc1ccc(OC)cc1)c1ncccn1` the EC50 was 0.51 µM.
`CCCCOc1ccc(Br)cc1CSC(=N)N` showed an EC50 of 5.78 µM.
In the case of `CCCCCCCCCCCCCCCC[N+](C)(C)C`, the EC50 is reported as 0.79 µM.
In the case of `NC(=NCCCCCCN=C(N)/N=C(\N)Nc1ccc(Cl)cc1)/N=C(\N)Nc1ccc(Cl)cc1`, the EC50 is reported as 3.09 µM and 3.04 µM and 2.9 µM.
In the case of `Oc1cccc(/C=N/NC(=S)Nc2cccnc2)c1O`, the EC50 is reported as 4.11 µM.
`CCOc1cccc(CNc2ccc(O)cc2)c1OCc1ccc(Cl)cc1Cl` gave an EC50 of 26.9 µM.
Molecule `CN1CCN(C(c2ccc(Cl)cc2)c2cc(Cl)c3cccnc3c2O)CC1` (stereo not given) has an EC50 of 1.66 µM.
With `OCCN1CCN(Cc2cc(Cl)c3cccnc3c2O)CC1` the EC50 was 12 µM.
With `Cc1cccc(N2CCc3c2nc2ccccc2c3N)c1` the EC50 was 47.6 µM.
In the case of `O=c1[nH][nH]c(-c2ccccc2O)c1C(C[N+](=O)[O-])c1cccc(Cl)c1` (stereo not given), the EC50 is reported as 33.4 µM.
In the case of `Oc1ccc(/C=N/Nc2ncc(Br)cn2)c(O)c1`, the EC50 is reported as 3.1 µM.
`O=C(c1ccccc1)C(CN1CCCC1)c1ccccc1` (stereo not given) gave an EC50 of 5.56 µM.
Work on `O=C(c1ccc(F)cc1)C(CN1CCOCC1)c1ccccc1` (stereo not given) yielded an EC50 of 6.92 µM.
In the case of `CCOC(=O)C1=Nc2ccccc2C1=[N+]=[N-]`, the EC50 is reported as 27.2 µM.
Molecule `Cc1[nH]c2ccccc2c1/C=N/Nc1ccc(F)cc1F` has an EC50 of 48.5 µM.
Work on `Cc1cc(C(=O)N/N=C/c2ccc([N+](=O)[O-])s2)n[nH]1` yielded an EC50 of 12.8 µM.
`Cc1cc(C2=NNC(=NC3CC3)SC2)c(C)n1Cc1ccco1` showed an EC50 of 5.69 µM.
For `N=C(N)SCc1cn(-c2ccccc2)nc1-c1ccc(Br)cc1`, the EC50 was 4.83 µM.
`O=C(c1cccs1)c1no[n+]([O-])c1C(=O)c1cccs1` was tested, and the EC50 was 2.61 µM.
`CCOC(=O)c1ccc(-c2ccc(C3Nc4ccccc4C(=O)N3O)o2)cc1` (stereo not given) was tested, and the EC50 was 9.38 µM.
`Oc1ccc(Br)cc1-c1nc2cnccn2c1NC1CCCCC1` showed an EC50 of 46.4 µM.
`CCCCCCCNC(=O)C1(CC2CC(c3ccc(Cl)cc3)=NO2)CCNCC1` (stereo not given) was tested, and the EC50 was 5.66 µM.
`CN1c2ccccc2C(C)(C)[C@]12C=Cc1cc(O)ccc1O2` showed an EC50 of 15.4 µM.
Work on `COc1ccc(C(=O)Oc2c(CN3CCOCC3)cc(Cl)c3cccnc23)cc1` yielded an EC50 of 6.67 µM.
Work on `Cc1cc(SCC(=O)N/N=C/c2ccc(O)c(O)c2O)c(C)cc1Br` yielded an EC50 of 2.76 µM.
For `C/C(=N\Nc1ncnc2sc(C)c(C)c12)c1ccccn1`, the EC50 was < 0.1 µM.
Work on `CC(=O)Oc1cc2cccc(OC(C)=O)c(=O)c2c(OC(C)=O)c1OC(C)=O` yielded an EC50 of 14.6 µM.
In the case of `CN(C)CCCN(C(=O)CCc1ccccc1)c1nc2ccc(Cl)cc2s1`, the EC50 is reported as 25.9 µM.
`O=C1c2ccccc2NC(c2ccc(-c3ccc(Br)cc3)o2)N1O` (stereo not given) was tested, and the EC50 was 7.16 µM.
With `CCOc1ccc2c(c1)nc(SCC(=O)c1ccc(Br)s1)n2C` the EC50 was 47.3 µM.
For `Cc1ccc(Nc2c3c(nc4ccccc24)CCC3)cc1`, the EC50 was 12.2 µM.
Work on `COc1cc(C(=O)NC(=S)Nc2ccc3oc(=O)ccc3c2)cc(OC)c1OC` yielded an EC50 of 45.9 µM.
